Test results: paper PMC6017331, “Bacterial Production, Characterization and Protein Modeling of a Novel Monofuctional Isoform of FAD Synthase in Humans: An Emergency Protein?” (Molecules : A Journal of Synthetic Chemistry and Natural …, 2018)

Columns and labels:
[1] = molecular target: T1, hFADS6 (6-His-hFADS6; human FAD synthase isoform 6) (Homo sapiens, UniProt Q8NFF5); assay: fluorimetric FAD synthesis, Michaelis-Menten fit; assay type: biochemical; settings: 5 mM MgCl2, 50 mM Tris/HCl pH 7.5, 37 °C
T1 construct: gene FLAD1; 320 residues (963 bp cDNA) from Met268 of FADS1, PAPS reductase domain plus N-terminal extension; E. coli Rosetta(DE3)pLysS; monomer

[2] = molecular target: T1, hFADS6 (6-His-hFADS6; human FAD synthase isoform 6); assay: absorbance spectrum and HPLC of acid-extracted flavin from purified protein; assay type: binding; settings: co-purified from E. coli; tightly but not covalently bound
[3] = molecular target: T1, hFADS6 (6-His-hFADS6; human FAD synthase isoform 6); assay: fluorimetric FAD pyrophosphorolysis; assay type: biochemical; settings: NaPPi, 5 mM MgCl2, 50 mM Tris/HCl pH 7.5, 37 °C; reverse reaction; detection limit of the instrument; read-out: KmFAD
[4] = molecular target: human FAD synthase isoform 2 (6-His-hFADS2) (human); assay: SEC-MALS; tandem HPLC-GPC/LS on a Superose 12 10/300 GL column, 0.5 mL/min, 40 mM Hepes/Na, 150 mM NaCl, pH 7.4; MALS masses taken from the peaks run with 1 mM DTT

T1 sequence (Q8NFF5 268-587): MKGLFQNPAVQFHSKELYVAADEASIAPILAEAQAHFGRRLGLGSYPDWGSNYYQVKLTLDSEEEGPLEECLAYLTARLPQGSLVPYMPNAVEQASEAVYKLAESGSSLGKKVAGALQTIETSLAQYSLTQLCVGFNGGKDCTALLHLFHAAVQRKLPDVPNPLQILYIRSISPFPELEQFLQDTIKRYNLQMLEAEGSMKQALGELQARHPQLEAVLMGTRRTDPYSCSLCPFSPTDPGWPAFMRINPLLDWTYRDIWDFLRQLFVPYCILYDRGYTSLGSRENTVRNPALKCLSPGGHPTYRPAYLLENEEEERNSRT
Chain of human FAD synthase isoform 2 (6-His-hFADS2) (enzyme) (Q8NFF5 98-587): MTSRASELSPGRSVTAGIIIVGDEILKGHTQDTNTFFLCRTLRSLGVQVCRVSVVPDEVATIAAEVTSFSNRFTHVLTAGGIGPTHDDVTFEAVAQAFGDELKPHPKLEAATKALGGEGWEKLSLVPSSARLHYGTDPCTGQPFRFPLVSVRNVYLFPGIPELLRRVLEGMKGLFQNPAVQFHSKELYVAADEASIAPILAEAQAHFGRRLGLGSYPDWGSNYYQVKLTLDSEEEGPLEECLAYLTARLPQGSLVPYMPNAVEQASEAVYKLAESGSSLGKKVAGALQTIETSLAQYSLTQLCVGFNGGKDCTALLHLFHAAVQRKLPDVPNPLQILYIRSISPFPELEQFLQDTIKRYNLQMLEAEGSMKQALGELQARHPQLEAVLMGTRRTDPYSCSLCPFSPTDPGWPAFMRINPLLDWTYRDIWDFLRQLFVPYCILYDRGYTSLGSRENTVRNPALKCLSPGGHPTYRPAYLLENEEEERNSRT

With Cc1cc2nc3c(=O)[nH]c(=O)nc-3n(C[C@H](O)[C@H](O)[C@H](O)COP(=O)(O)O)c2cc1C [FMN] the Km ([1]; 100 µM ATP, read-out: KmFMN (apparent)) was 0.13 ± 0.01 µM.
Cc1cc2nc3c(=O)[nH]c(=O)nc-3n(C[C@H](O)[C@H](O)[C@H](O)COP(=O)(O)OP(=O)(O)OC[C@H]3O[C@@H](n4cnc5c(N)ncnc54)[C@H](O)[C@@H]3O)c2cc1C [FAD] was tested, and the FAD/monomer ratio [2] was “demonstrates that the bound cofactor is FAD” and the Km [3] was under 0.1 µM.
Work on Nc1ncnc2c1ncn2[C@@H]1O[C@H](COP(=O)(O)OP(=O)(O)OP(=O)(O)O)[C@@H](O)[C@H]1O [ATP] yielded a Km ([1]; 2 µM FMN, read-out: KmATP (apparent)) of 6.91 ± 0.51 µM.
In the case of “human FAD synthase isoform 2 (6-His-hFADS2) (enzyme)”, the stoichiometry N [4] is reported as 2.
